{"source": "paper PMC4967898", "about": "“Peptides interfering with protein-protein interactions in the ethylene signaling pathway delay tomato fruit ripening” (Scientific Reports, 2016)", "key": {"[1]": {"experiment": "Fluorescence of the dyes on their own (FRET control)", "settings": "100 μM peptide; free dyes", "from_the_text": "For this purpose, we made use of a fluorescence resonance energy transfer (FRET)-based in vitro assay, originally established for the respective Arabidopsis signaling proteins. Recombinant ethylene proteins LeETR1 and LeEIN2^462–1316 were labeled with fluorescent Alexa dyes[36] as described in the Methods section. LeETR1 was labeled with Alexa Fluor 488, while LeEIN2^462–1316 was labeled with Alexa Fluor 568. As the emission spectrum of the donor fluorophore partially overlaps with the excitation spectrum of the acceptor fluorophore, the dyes form a FRET pair and energy transfer from the donor to the acceptor fluorophore is possible when both probes get in close proximity. […] Formation of the complex is monitored by FRET from the donor molecule Alexa Fluor 488 to the acceptor molecule Alexa Fluor 568. Processes or molecules that prevent complex formation result in a reduced FRET from the donor to the acceptor, which is detected as reduced acceptor fluorescence at the emission maximum.\n(b) Calculation of IC50 value for NOP-1. Data were obtained in the FRET-assay in presence of increasing concentrations of NOP-1 peptide. […] (c) Determination of Kd value of NOP-1 binding to LeETR1 based on MST is illustrated. MST-signal is plotted against the NOP-1 concentration. […] All data (a,b,c) represent the mean +/− standard deviation."}, "[2]": {"system": "green, immature tomato fruits", "experiment": "Tomato fruit ripening after inhibitor treatment", "type": "in vivo, tomato (Solanum pimpinellifolium)", "from_the_text": "To further investigate the potential of NOP-1 for agricultural applications, we tested the effect of the NOP-1 peptide on tomato fruit ripening in comparison to other known inhibitors of ethylene responses. To this end we tested […] (MCP) and aminoethoxyvinylglycine (AVG). MCP is a known inhibitor of ethylene signaling blocking ethylene binding at the receptor proteins, whereas AVG blocks ethylene production in the plant by competitive inhibition of ACC synthases. To monitor inhibition of the fruit ripening process, we treated green, immature tomato fruits with 200 μM NOP-1, MCP or AVG, respectively and documented the fruit ripening process for 20 days. Figure 3 compares the effect of the different inhibitor treatments on tomato fruits to controls lacking the inhibitory treatment that contain either buffer alone or a random sequence control peptide (ROP-1). […] The bioassays underline the high inhibitory potential of NOP-1 on the ripening process compared to the well-known and efficient inhibitors of ethylene responses.\nInhibitor-treatment of tomato fruits\n(§1) Aminoethoxyvinyl glycine (AVG) was purchased from Sigma-Aldrich, St Louis, MO (purity ~95%). SmartFresh^SM (AgroFresh, Spring House, PA) was used as sugar-based powder formulation of 1-MCP. Concentration of 1-MCP was calculated according to the percentage of active ingredient (0.14%) and release from the SmartFresh^SM powder. For comparison concentration of all inhibitors are expressed in terms of molarity. For treatment of tomato fruits with NOP-1, AVG and MCP, inhibitors were dissolved in the FRET buffer described in the previous section to a final concentration of 200 μM. Green tomato fruits (Solanum pimpinellifolium) from the same estimated developmental stage were harvested from the panicle and water-cleaned. 300 μL of the inhibitor solution was applied onto the tomato surface with a brush and the fruits were air-dried for 30 min. As an alternative application, tomato fruits were plunged into 2 mL of the inhibitor solution and incubated for 30 min in this solution or 200 μL of the peptide-containing solution were carefully injected into the tomato tissue by a hypodermic syringe. Three individual tomato fruits were treated for the different applications of the peptide in order to document the ripening process. After inhibitor-treatment tomato fruits were transferred to a vial closed with aluminum foil and stored in the dark at room temperature. Maturation process was documented every second day for at least 20 days. For measurement of ethylene production, green tomato fruits were treated as described above."}, "[3]": {"system": "climacteric tomato fruits", "experiment": "Real-time monitoring of ethylene production of tomato fruits (laser-based ethylene detector)", "type": "in vivo, tomato (Solanum pimpinellifolium)", "method": "as §1\nReal-time monitoring of ethylene production\nEthylene production was continuously monitored over 19 days with a laser-based ethylene detector (ETD-300; Sensor Sense BV; Nijmegen, Netherlands). A detailed description of the system has been given elsewhere. Briefly, the detector consists of a laser emitting radiation in the 10 micrometers infrared wavelength region and a photoacoustic cell, in which ethylene is detected due to its strong fingerprint-like absorption pattern in this region. Inside the photoacoustic cell ethylene can absorb the laser radiation and converts it into kinetic energy by energy exchange processes, resulting in local heating of the sample. By switching on and off the light, rapid heating/cooling can occur, giving rise to a periodical pressure change, i.e. sound wave. The amplitude of these waves is directly proportional to the concentration of ethylene in the photoacoustic cell and can be detected very accurately with sensitive miniature microphones.\nSix tomato fruits for each treatment, including an untreated group (buffer control, CT) were placed into glass cuvettes (150 ml volume) and connected to a gas flow through system (VC-6, Sensor Sense BV; Nijmegen, Netherlands) under a continuous flow routine as described in Ref. [58]. The […] ensured that the samples were continuously flushed with air at a constant flow of 2 l/h and allowed automated sampling of ethylene from the headspace of six cuvettes. Each cuvette was alternatively connected to the ETD-300 and ethylene emitted in the headspace was measured for 12 min. […] The ethylene production was related to the emission rate by multiplying the measured value with the flow rate (expressed in nanoliters per hour, nl/h) and further normalized with the fresh weight (expressed in grams, gFW); the end result being nanoliters per hour per gram of fresh weight, nl/h∙gFW."}}, "note": "“Also recorded” adds a separate entry of the source."}
{"compound": "CC(C)C[C@H](NC(=O)[C@H](CCCNC(=N)N)NC(=O)[C@H](CCCNC(=N)N)NC(=O)[C@H](CCCCN)NC(=O)[C@H](Cc1ccc(O)cc1)NC(=O)[C@H](CCCNC(=N)N)NC(=O)[C@H](CCCCN)NC(=O)[C@@H](N)CC(C)C)C(N)=O", "note": "[NOP-1, LKRYKRRL-NH2]", "values": [{"measurement": "effect on fluorescence of the dyes on their own", "setting": "[1]", "result": "not affected by the peptides; also recorded: Neither of both peptides affected fluorescence of the free, unlabeled dyes"}, {"measurement": "delay in fruit ripening (Fig. 3c)", "setting": "[2]; 200 μM, surface-treated, incubated or injected, versus untreated fruits", "result": "at least 5 days"}, {"measurement": "delay in maturation of tomato fruits", "setting": "[2]; 200 μM, all tested inhibitors and all applications of NOP-1 (injection, incubation, surface application), documented for 20 days, three fruits per application", "result": "10 to 15", "unit": "days"}, {"measurement": "delay in maturation by application form (in words)", "setting": "[2]; 200 μM, surface application compared with incubation and injection", "result": "Delay in maturation process is most evident for fruit surface application"}, {"measurement": "effect on tomato fruit ripening (in words)", "setting": "[2]; compared with buffer or untreated control, inhibitors at 200 μM", "result": "delays ripening similar to known inhibitors of ethylene perception (MCP) and ethylene biosynthesis (AVG)"}, {"measurement": "penetration of fruit surface / uptake (in words)", "setting": "[2]; inferred from ripening delay after surface application, 200 μM", "result": "can easily penetrate the surface tissue of the tomatoes and is taken up by the fruits; also recorded: seems to penetrate the exocarp and is taken up by the fruits"}, {"measurement": "delay in ripening by injection (in words)", "setting": "[2]; injection into the fruits, initial experiments", "result": "less pronounced delay in ripening"}, {"measurement": "delay in fruit ripening (Fig. 3a)", "setting": "[2]; surface-treated, 200 μM, versus untreated control fruits", "result": "at least 15 days"}, {"measurement": "time of ethylene production peak, injected or incubated fruits", "setting": "[3]; 200 μM NOP-1, injected or incubated", "result": "6 to 8", "unit": "days"}, {"measurement": "initial ethylene burst in injected fruits", "setting": "[3]; 200 μM NOP-1, injected, attributed to wounding", "result": "ethylene burst detected in the injected fruits; also recorded: initial burst in ethylene production within the first hours"}, {"measurement": "time of ethylene production peak, surface-treated fruits", "setting": "[3]; 200 μM NOP-1, surface-treated, same time as control fruits", "result": "~12", "unit": "days"}, {"measurement": "ethylene production compared with controls (in words)", "setting": "[3]; 200 μM NOP-1, surface treatment, injection, incubation, versus untreated fruits and buffer control, six fruits per treatment, 21 °C, dark", "result": "do not significantly differ from controls; also recorded: No reduction in ethylene production is evident; also recorded: modest increase rather than an inhibition of ethylene production"}, {"measurement": "Ethylene production over 18 days (total ethylene release, average of applications)", "setting": "[3]; fruits treated with 200 μM NOP-1, average of surface-application, incubation and injection, injected fruits corrected for initial ethylene burst, six fruits per treatment, 21 °C, dark", "result": "616 +/- 46 nl/gFW"}]}
